Substitutions are numbered along the chain they refer to. Values joined by “and” are separate entries in the source; they are usually repeats but may differ in a detail not shown here. Equal values may be shown once. Read-outs that look alike come from different tables or passages of the source.
Experiments:
[1] = tested on: CYP11B1 S288G/V320A / CYP11B2 Wild type; design: method as in ref [2, 3] (a number printed in a supplementary file, which may have a reference list of its own: not looked up in the article's list); conditions: group (iv); steroids produced from DOC, estimated against wild type controls; ref [2, 3]; cited from earlier work
[2] = tested on: CYP11B1 Wild type / CYP11B2 G288S; design: method as in ref [2, 3] (a number printed in a supplementary file, which may have a reference list of its own: not looked up in the article's list); conditions: group (ii); steroids produced from DOC, estimated against wild type controls; ref [2, 3]; cited from earlier work
[3] = biological target: T1, human CYP11B1 mutant (W49R, L50N, L53N, W56R, L244N, W247N) (Homo sapiens, UniProt P15538, L244N/L50N/L53N/W247N/W49R/W56R); assay: Spectroscopic titration of ferric enzyme (difference spectra), mutant; conditions: direct titration of ferric form, mean ± SE, n=3
T1 sequence (P15538 28-503 W49R/L50N/L53N/W56R/L244N/W247N limits assumed): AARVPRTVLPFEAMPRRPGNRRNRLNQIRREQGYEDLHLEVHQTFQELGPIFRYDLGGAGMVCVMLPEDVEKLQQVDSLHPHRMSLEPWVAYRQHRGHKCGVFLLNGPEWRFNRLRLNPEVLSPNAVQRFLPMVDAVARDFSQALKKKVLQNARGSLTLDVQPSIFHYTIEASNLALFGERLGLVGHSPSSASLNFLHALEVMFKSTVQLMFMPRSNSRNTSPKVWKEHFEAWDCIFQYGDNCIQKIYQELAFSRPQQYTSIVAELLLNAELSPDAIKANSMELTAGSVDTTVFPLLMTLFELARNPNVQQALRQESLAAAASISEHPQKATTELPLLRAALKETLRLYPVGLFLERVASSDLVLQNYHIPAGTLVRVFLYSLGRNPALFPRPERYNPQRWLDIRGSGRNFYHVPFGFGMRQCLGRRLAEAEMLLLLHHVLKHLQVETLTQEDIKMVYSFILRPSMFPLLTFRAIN
Description: (§1) Affinities of the two enzymes for the substrates DOC or DOF and other ligands were determined by titration assays using the ferric forms.
Two forms, a wild type and a mutant, of recombinant human CYP11B1 were expressed as 486-amino acid residue polypeptide (Fig. S2).
Spectroscopic studies were carried out at room temperature using a Jasco UV–visible spectrophotometer V-530. Purified enzymes were diluted to 1.0 ​μM for the wild type and 0.8–1.2 ​μM for the mutant with the buffer consisting of 50 ​mM potassium phosphate (pH 7.4), 150 ​mM NaCl, 20% (v/v) glycerol, and 0.05% (v/v) Tween 20. Substrate DOC (Sigma) at 400 ​μM, sodium dithionite, and CO were added sequentially, and absolute spectra were recorded after each step. […] The data obtained with 5 ​mM Cymal-5 (Anatrace) in place of the substrate were also included in Fig. S4. Dissociation constants for steroids and ligands were determined from spectral changes caused by titration with increasing concentrations of them. Data were analyzed using non-linear regression (Prism 8, GraphPad Software) to calculate Kd values. […] The dissociation constants were calculated from the apparent values by using the Kd values for DOC as the inhibitory constants. […] The steroids and ligands used for spectroscopic analyses were dissolved in dimethyl sulfoxide.

[4] = biological target: T2, human CYP11B1 wild type (Homo sapiens, UniProt P15538); assay: Spectroscopic titration of ferric enzyme (difference spectra), wild type; conditions: for Spectral shift: one column for both wild type and mutant
T2 sequence (P15538 28-503 limits assumed): T1 sequence (P15538 28-503 W49R/L50N/L53N/W56R/L244N/W247N limits assumed) with R22W, N23L, N26L, R29W, N217L, N220W
Description: as §1
Spectroscopic studies were carried out at room temperature using a Jasco UV–visible spectrophotometer V-530. Purified enzymes were diluted to 1.0 ​μM for the wild type and 0.8–1.2 ​μM for the mutant with the buffer consisting of 50 ​mM potassium phosphate (pH 7.4), 150 ​mM NaCl, 20% (v/v) glycerol, and 0.05% (v/v) Tween 20. […] Dissociation constants for steroids and ligands were determined from spectral changes caused by titration with increasing concentrations of them. Data were analyzed using non-linear regression (Prism 8, GraphPad Software) to calculate Kd values. […] The dissociation constants were calculated from the apparent values by using the Kd values for DOC as the inhibitory constants. […] The steroids and ligands used for spectroscopic analyses were dissolved in dimethyl sulfoxide.

[5] = tested on: CYP11B2 Wild type; design: method as in ref [1] (a number printed in a supplementary file, which may have a reference list of its own: not looked up in the article's list); conditions: calculated from kcat values with substrate DOC, ref [1]; cited from earlier work
[6] = biological target: T2, human CYP11B1 wild type; assay: Steady-state kinetics in reconstituted system (adrenodoxin reductase, adrenodoxin, NADPH), LC-MS/MS, wild type; type: biochemical
[7] = biological target: T1, human CYP11B1 mutant (W49R, L50N, L53N, W56R, L244N, W247N); assay: Steady-state kinetics in reconstituted system (adrenodoxin reductase, adrenodoxin, NADPH), LC-MS/MS, mutant; type: biochemical; conditions: for Production of 18-hydroxy cortisol / 18-hydroxy corticosterone (11β,18-dihydroxylation): from DOF and DOC, respectively
[8] = tested on: CYP11B1 S288G / CYP11B2 R181W/V386A; design: method as in ref [2, 3] (a number printed in a supplementary file, which may have a reference list of its own: not looked up in the article's list); conditions: group (iii); steroids produced from DOC, estimated against wild type controls; ref [2, 3]; cited from earlier work
[9] = CYP11B1 wild type (this study), calculated from kcat values with substrate DOC
[10] = CYP11B1 mutant, calculated from kcat values with substrate DOC

## C[C@]12CC[C@H]3[C@@H](CCC4=CC(=O)CC[C@@]43C)[C@@H]1CC[C@@H]2C(=O)CO [DOC, 11-deoxycorticosterone]
[1]
  Activity class, 11b,18-diOHase: ++ (Percentages 0, >0 and ≤1, >1 and ≤10, and >10 are indicated by (-), (+), (++), and (+++), respectively)
  Activity class, 11b,18-diOHase,18-oxidase: + (Percentages 0, >0 and ≤1, >1 and ≤10, and >10 are indicated by (-), (+), (++), and (+++), respectively)
  Activity class, 11b-OHase: +++ (Percentages 0, >0 and ≤1, >1 and ≤10, and >10 are indicated by (-), (+), (++), and (+++), respectively)
[2]
  Activity class, 11b,18-diOHase: + (Percentages 0, >0 and ≤1, >1 and ≤10, and >10 are indicated by (-), (+), (++), and (+++), respectively)
  Activity class, 11b,18-diOHase,18-oxidase: - (Percentages 0, >0 and ≤1, >1 and ≤10, and >10 are indicated by (-), (+), (++), and (+++), respectively)
  Activity class, 11b-OHase: +++ (Percentages 0, >0 and ≤1, >1 and ≤10, and >10 are indicated by (-), (+), (++), and (+++), respectively)
[3]
  Kd: 3.8 µM and 3.81 µM
[4]
  Kd: 15.1 µM
  Spectral shift: Type I
[5]
  Relative activity (molar product ratio), 11b,18-diOHase: 2.7%
  Relative activity (molar product ratio), 11b,18-diOHase,18-oxidase: 0.5%
  Relative activity (molar product ratio), 11b-OHase: 92.6%
  Relative activity (molar product ratio), 18-OHase: 4.2%
[6]
  kcat, 11β,18-diOHase,18-oxidase: 0 s⁻¹
  kcat, 11β,18-dihydroxylation: 0.0108 s⁻¹
  kcat, 11β-hydroxylation: 2.683 s⁻¹
  kcat, 18-hydroxylation: 0.132 s⁻¹
[6]; [9]
  Relative activity (molar product ratio), 11b,18-diOHase: 0.4%
  Relative activity (molar product ratio), 11b,18-diOHase,18-oxidase: 0%
  Relative activity (molar product ratio), 11b-OHase: 94.9%
  Relative activity (molar product ratio), 18-OHase: 4.7%
[6]; Wild type, from DOC
  Production of aldosterone: not produced
[7]
  kcat, 11β,18-diOHase: 0 s⁻¹
  kcat, 11β,18-diOHase,18-oxidase: 0 s⁻¹
  kcat, 11β-hydroxylation: 2.212 s⁻¹
[7]; [10]
  Relative activity (molar product ratio), 11b,18-diOHase: 0%
  Relative activity (molar product ratio), 11b,18-diOHase,18-oxidase: 0%
  Relative activity (molar product ratio), 11b-OHase: 95.8%
  Relative activity (molar product ratio), 18-OHase: 4.2%
[7]; Mutant, from DOC
  Production of aldosterone: not produced
[7]; Mutant
  Production of 18-hydroxy cortisol / 18-hydroxy corticosterone (11β,18-dihydroxylation): did not produce
[8]
  Activity class, 11b,18-diOHase: ++ (Percentages 0, >0 and ≤1, >1 and ≤10, and >10 are indicated by (-), (+), (++), and (+++), respectively)
  Activity class, 11b,18-diOHase,18-oxidase: - (Percentages 0, >0 and ≤1, >1 and ≤10, and >10 are indicated by (-), (+), (++), and (+++), respectively)
  Activity class, 11b-OHase: +++ (Percentages 0, >0 and ≤1, >1 and ≤10, and >10 are indicated by (-), (+), (++), and (+++), respectively)

## C[C@]12CCC(=O)C=C1CC[C@@H]1[C@@H]2CC[C@@]2(C)[C@H]1CC[C@]2(O)C(=O)CO [DOF, 11-deoxycortisol]
[3]
  Kd: 3.3 µM and 3.31 µM
[4]
  Kd: 21.2 µM
  Spectral shift: Type I
[6]; Wild type, DOF to cortisol, DOC to corticosterone
  kcat, 11β-hydroxylation: 2.157 s⁻¹
[7]; Mutant, DOF to cortisol, DOC to corticosterone
  kcat, 11β-hydroxylation: 1.51 s⁻¹
[7]; Mutant
  Production of 18-hydroxy cortisol / 18-hydroxy corticosterone (11β,18-dihydroxylation): did not produce
[7]; Mutant, product 18OH-F (from DOF) or 18OH-B (from DOC)
  kcat, 11β,18-diOHase: 0 s⁻¹

Reference: paper PMC8408562, “Spatially restricted substrate-binding site of cortisol-synthesizing CYP11B1 limits multiple hydroxylations and hinders aldosterone synthesis” (Current Research in Structural Biology, 2021)
